Test results taken from patent US20070202547A1, “Methods For Detecting Substances Which Bind To The Amyloid Precursor Protein Or Beta Amyloid Fragments, And Binding Compounds” (priority 2004, published 2007).

How the values were obtained:
gamma-secretase = gamma-secretase (Homo sapiens, UniProt P05067); experiment: Gamma-secretase cleavage of CTFβ substrate (HeLa cell membrane extract); type: biochemical; conditions: Aβ40 detection with 6E-10/G2-10, read-out: CTFβ CLEAVAGE AT POSITION 40
Procedure: Accordingly, Examples 1-4 were tested for their ability to inhibit gamma-secretase cleavage of both a full-length CTFβ substrate, as described in Li, 2000, Proc. Natl Acad Sci. 97:6138-6143. The assays were carried out as follows:
Inhibition of CTFβ Cleavage
• 10 μL 10× protease inhibitor cocktail (Roche, cat # 1836153) • 25 μL 4× Buffer (50 mM PIPES pH7.0, 150 mM KCl, 5 mM MgCl2, 5 mM CaCl2) • 2 μL 10% CHAPSO • 5 μL HeLa cell membrane extract characterized for gamma-secretase activity • 7 μL 25 μM bacterially expressed CTFβ • 51 μL water • 1 μL compound in DMSO The reactions were incubated at 37° C. for 150 min and quenched with 25 μL 5× RIPA buffer (750mM NaCl, 5% NP-40, 2.5% DOC, 0.5% SDS, 250 mM Tris H8.0). Detection:
Gamma-secretase cleavage of the CTFβ substrate was assessed by incubating 50 μL of the reaction with 25 μL of 4 μg/mL biotinylated antibody 6E-10 which is specific for the N-terminal region of Aβ, and 25 μL of 1.5 μg/mL of a ruthinylated antibody G2-10, which is specific to the C-terminal region of Aβ40. The C-terminal region is present only after gamma secretase cleavage of Aβ. The antibodies were allowed to bind overnight at room temperature. The following day, 25 μL of 80 μg/mL streptavidin-coated Dynabeads (M-280) were added to each reaction, allowed to bind for 30 minutes, and quenched with 275 μL IGEN assay buffer. Quantification of the gamma-secretase cleavage products was carried out using an Origen Analyzer.

APP = APP (Homo sapiens, UniProt P05067); experiment: Biacore S51 binding to immobilized biotinylated APP; conditions: Biacore S51, SA-coated sensor chip
Sequence of APP (P05067 18-770): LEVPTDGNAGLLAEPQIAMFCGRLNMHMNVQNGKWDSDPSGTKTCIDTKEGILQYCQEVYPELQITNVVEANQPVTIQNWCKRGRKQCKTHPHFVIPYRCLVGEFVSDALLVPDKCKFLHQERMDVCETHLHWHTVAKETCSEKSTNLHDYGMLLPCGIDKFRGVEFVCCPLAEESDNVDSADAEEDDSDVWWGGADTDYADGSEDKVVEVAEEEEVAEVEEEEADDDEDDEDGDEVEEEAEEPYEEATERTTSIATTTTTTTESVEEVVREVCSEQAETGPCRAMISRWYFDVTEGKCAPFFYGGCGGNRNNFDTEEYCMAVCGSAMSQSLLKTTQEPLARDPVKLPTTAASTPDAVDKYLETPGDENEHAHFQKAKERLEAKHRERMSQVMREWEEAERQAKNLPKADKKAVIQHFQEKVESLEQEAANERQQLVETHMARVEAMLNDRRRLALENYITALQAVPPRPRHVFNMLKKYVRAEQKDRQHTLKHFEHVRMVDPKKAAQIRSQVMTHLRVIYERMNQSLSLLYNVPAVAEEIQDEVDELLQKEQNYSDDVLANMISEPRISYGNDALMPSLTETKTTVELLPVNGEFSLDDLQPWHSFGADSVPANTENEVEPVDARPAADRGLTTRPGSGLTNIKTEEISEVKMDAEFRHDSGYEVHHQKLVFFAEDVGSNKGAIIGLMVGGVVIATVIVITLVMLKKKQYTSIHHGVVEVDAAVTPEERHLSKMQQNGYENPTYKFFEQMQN
Procedure: (§1) The compounds of formula (I) are believed to inhibit APP cleavage function by binding APP. The binding of the compound of Example 1 to APP was assayed by BiacoreS51. Biotinylated APP and biotinylated sAPPβ were immobilized to a SA-coated sensor chip. A titration of Example 1 was injected and the binding response for each concentration of Example 1 was obtained for both proteins. FIG. 5 is a graph of response units for […] (◯) or the BACE 1 inhibitor Statine-Val ( ? ) binding to APP.

sAPPβ = target: T1, sAPPβ (Homo sapiens, UniProt P05067); experiment: Biacore S51 binding to immobilized biotinylated sAPPβ; conditions: Biacore S51, SA-coated sensor chip
T1 construct: Biotinylated APP and biotinylated sAPPβ were immobilized to a SA-coated sensor chip
T1 sequence (P05067 18-671 limits assumed): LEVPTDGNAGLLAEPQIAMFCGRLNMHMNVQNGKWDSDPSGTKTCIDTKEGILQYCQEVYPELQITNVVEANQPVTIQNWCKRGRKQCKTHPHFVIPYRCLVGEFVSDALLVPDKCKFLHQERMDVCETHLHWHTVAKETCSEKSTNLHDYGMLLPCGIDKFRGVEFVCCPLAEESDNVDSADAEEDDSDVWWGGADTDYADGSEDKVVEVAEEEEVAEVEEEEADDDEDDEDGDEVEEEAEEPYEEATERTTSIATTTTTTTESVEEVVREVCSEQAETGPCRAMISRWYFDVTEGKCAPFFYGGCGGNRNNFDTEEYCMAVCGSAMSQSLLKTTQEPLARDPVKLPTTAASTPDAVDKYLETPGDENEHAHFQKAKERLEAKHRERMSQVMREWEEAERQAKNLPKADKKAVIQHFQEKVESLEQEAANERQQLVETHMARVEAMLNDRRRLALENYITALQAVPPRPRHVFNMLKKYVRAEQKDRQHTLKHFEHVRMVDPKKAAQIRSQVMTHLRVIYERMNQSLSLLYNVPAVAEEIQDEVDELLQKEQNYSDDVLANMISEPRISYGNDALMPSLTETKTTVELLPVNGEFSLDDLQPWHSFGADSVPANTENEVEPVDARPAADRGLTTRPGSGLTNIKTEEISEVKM
Procedure: as §1

[1] = test system: H4 neuroglioma cells expressing CTF99; experiment: Secreted Aβ42 and Aβ40 in H4 neuroglioma cells expressing CTF99 (ECL); type: cell-based; conditions: 20 h treatment, conditioned media, FIG. 4
Procedure: The compound of Example 1 was titrated into H4 neuroglioma cells expressing CTF99. The cells were treated with the compound of Example 1 for 20 h and conditioned media was harvested.

APP variant = experiment: Antibody-masking ALPHA assay on biotinylated APP variant (Examples 5A/5B); type: binding; conditions: antibody to C-terminal region of Aβ (5A) and LN27 to N-terminal region of APP (5B); pH 4.5, 37° C., 1 hour
Procedure: A biotinylated APP variant (400 nM) was combined with Examples 1-3 under assay conditions (50 mM sodium acetate, pH 4.5; 1x Protease Inhibitor cocktail (Roche cat # 1836153); 100 μg/mL bovine serum albumin, 0.2% CHAPS). Incubations with vehicle, including DMSO (compound diluent), and incubations lacking the APP variant were carried out as controls for each experiment. Each mixture was incubated at 37° C. for 1 hour.
Thereafter, 70 μL of each incubation mixture was placed in its own well of a 96-well plate. 5 μL of 1 M Tris-Cl, pH 8.0 was added to each well to neutralize any binding reaction.
In Example 5A, a mixture of ALPHA beads was prepared from
(1) 20 μg/mL streptavidin donor beads;
(2) 20 μg/mL Protein A acceptor beads (from AlphaScreen General IgG (Protein A) Detection Kit Perkin Elmer Life Sciences; 10,000 pts (Part Number 6760617M)), containing 150 ng/mL of a rabbit polyclonal antibody directed against the C-terminal region of Aβ; and
(3) 0.1 % bovine serum albumin.
The beads were combined in a phosphate buffered saline.
In Example 5B, a mixture of ALPHA beads was prepared from […]
The following day, the plates were read using ALPHAQUEST, to measure the degree of binding of the antibodies. […]

BACE2 = BACE2 cleavage of EV amyloid / Aβ (mass spectrometric analysis); type: biochemical; conditions: 100 μM; result in words
Procedure: The effect of inhibition of BACE 2 cleavage of EV amyloid was assayed using a protocol described in Shi et al, 2003, J. Biol. Chem., 278:21286-21294. The results of assaying Examples 1-4 at 100 μM are shown below: […]

BACE 1 = BACE 1 (Homo sapiens, UniProt P05067); experiment: Western blot of BACE 1 cleavage of APP variant; type: biochemical; conditions: bacterially expressed APP variant, BACE 1 protein, 1 h at 37° C.; read-out: IC50, inhibition of BACE cleavage of APP (densitometric quantitation of Western blot)
Sequence of BACE 1 (P05067 whole entry K670N/M671F/D672E/A673V, form open): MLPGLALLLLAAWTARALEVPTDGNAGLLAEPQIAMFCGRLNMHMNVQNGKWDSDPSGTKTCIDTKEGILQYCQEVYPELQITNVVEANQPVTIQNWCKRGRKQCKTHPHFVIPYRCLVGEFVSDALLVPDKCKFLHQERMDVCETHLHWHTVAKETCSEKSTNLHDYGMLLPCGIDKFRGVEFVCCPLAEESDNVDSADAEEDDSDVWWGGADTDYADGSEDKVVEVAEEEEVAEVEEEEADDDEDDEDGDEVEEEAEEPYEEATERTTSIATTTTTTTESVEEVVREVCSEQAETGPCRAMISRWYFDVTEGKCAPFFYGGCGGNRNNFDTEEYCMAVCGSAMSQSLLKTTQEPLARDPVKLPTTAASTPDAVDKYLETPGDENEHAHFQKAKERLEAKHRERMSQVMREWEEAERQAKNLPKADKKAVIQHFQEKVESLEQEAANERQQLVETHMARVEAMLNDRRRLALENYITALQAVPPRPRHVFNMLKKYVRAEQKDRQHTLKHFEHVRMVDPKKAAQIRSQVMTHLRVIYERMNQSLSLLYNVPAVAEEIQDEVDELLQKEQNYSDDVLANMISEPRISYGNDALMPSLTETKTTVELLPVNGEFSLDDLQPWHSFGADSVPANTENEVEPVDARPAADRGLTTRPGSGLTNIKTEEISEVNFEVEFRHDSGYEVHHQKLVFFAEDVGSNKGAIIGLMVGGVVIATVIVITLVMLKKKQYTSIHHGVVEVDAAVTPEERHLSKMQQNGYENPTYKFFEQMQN
Procedure: A bacterially expressed APP variant containing an enhanced BACE cleavage sequence was incubated with Example 2 and BACE 1 protein for 1 h at 37° C. to conduct a Western blot analysis. The reaction was run on a gel and blotted. The BACE-specific cleavage product was detected using an antibody specifically recognizing the N-terminal product arising after BACE cleavage.
FIG. 2(A) depicts the Western blot.

Sequence of gamma-secretase (P05067 whole entry): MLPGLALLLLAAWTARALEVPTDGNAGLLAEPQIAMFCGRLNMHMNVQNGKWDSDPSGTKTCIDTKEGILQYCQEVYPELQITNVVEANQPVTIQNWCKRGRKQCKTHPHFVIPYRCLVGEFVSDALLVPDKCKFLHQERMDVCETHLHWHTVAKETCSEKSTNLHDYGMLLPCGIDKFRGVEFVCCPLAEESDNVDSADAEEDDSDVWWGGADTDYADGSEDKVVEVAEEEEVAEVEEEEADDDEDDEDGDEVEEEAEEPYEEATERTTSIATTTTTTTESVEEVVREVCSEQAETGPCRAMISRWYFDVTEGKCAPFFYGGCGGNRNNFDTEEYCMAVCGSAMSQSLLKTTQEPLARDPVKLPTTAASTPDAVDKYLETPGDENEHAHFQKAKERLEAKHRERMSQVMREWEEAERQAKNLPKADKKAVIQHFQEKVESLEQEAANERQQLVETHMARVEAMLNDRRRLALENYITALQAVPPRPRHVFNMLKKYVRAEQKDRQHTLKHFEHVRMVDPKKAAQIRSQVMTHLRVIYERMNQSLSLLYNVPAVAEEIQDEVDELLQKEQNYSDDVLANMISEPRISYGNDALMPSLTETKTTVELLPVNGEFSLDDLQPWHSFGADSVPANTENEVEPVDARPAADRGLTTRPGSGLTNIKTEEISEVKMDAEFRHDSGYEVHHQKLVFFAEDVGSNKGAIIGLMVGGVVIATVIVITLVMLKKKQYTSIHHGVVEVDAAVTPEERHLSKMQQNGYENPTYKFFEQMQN

| Compound | IC50 (gamma-secretase) | binding to APP (APP) | binding to sAPPβ (sAPPβ) | production of Aβ42 relative to Aβ40 [1] | interaction with the APP variant near the antibody binding sites (APP variant) | effect on BACE2 cleavage at positions 19 and 20 (BACE2) | IC50 (BACE 1) |
| --- | --- | --- | --- | --- | --- | --- | --- |
| O=C(O)COc1cc2c(cc1CCCOc1ccccc1)OC(CCc1ccccc1)C2 (stereo not drawn) [Example 1, {[6-(3-phenoxypropyl)-2-(2-phenylethyl)-2,3-dihydro-1-benzofuran-5-yl]oxy} acetic acid] | 29 µM | binds APP | does not bind sAPPβ | decrease the production of Aβ42 relative to the production of Aβ40 | interacted with the APP variant within its Aβ domain, proximal to the C-terminal binding site |  |  |
| O=C(O)COc1cc2c(cc1CCCOc1ccccc1Cl)OC(CCc1ccccc1)C2 (stereo not drawn) [Example 2, {[6-[3-(2chlorophenoxy)propyl)-2-(2-phenylethyl)-2,3-dihydro-1-benzofuran-5-yl]oxy} acetic] | 8 µM |  |  |  | interacted with the APP variant within its Aβ domain, proximal to the C-terminal binding site | substantially enhanced cleavage at positions 19 and 20 | 11 µM |
